Test results published in PMC11604427 (Frontiers in Pharmacology, 2024).

Tests used:
MUSK = target: T1, MUSK (Homo sapiens, UniProt O15146); assay: SelectScreen kinase selectivity assay; format: biochemical
T1 construct: purchased Thermo Fisher Scientific (SelectScreen service)
Description: (§1) The kinase selectivity analysis of PKHD-5 was performed using the SelectScreen kinase analysis service provided by Thermo Fisher Scientific. The experiment initially involved the preparation of a series of inhibitor solutions at varying concentrations, which were then reacted with various kinase targets under standardized conditions to calculate the percentage inhibition for each test solution. Ultimately, the IC50 values were calculated based on the concentration-inhibition curves by fitting a four-parameter logistic curve, thereby assessing the potency and selectivity of the inhibitors. The analysis results are detailed in Supplementary Table S1.

EPHA7 = target: T2, EPHA7 (Homo sapiens, UniProt Q15375); assay: SelectScreen kinase selectivity assay; format: biochemical
T2 construct: purchased Thermo Fisher Scientific (SelectScreen service)
Description: as §1

CDK1 = target: T3, CDK1 (Homo sapiens, UniProt P06493); assay: SelectScreen kinase selectivity assay; format: biochemical
T3 construct: purchased Thermo Fisher Scientific (SelectScreen service)
T3 sequence (P06493 whole entry): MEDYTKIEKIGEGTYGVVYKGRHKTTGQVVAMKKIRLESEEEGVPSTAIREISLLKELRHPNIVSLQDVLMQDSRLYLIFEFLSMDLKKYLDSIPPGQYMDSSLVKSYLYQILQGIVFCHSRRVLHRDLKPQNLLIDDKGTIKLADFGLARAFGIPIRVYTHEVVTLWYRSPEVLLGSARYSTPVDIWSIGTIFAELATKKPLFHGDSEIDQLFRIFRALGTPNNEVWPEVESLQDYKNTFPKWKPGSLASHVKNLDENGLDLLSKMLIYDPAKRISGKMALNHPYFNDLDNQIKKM
T3 sequence (P14635 whole entry partner): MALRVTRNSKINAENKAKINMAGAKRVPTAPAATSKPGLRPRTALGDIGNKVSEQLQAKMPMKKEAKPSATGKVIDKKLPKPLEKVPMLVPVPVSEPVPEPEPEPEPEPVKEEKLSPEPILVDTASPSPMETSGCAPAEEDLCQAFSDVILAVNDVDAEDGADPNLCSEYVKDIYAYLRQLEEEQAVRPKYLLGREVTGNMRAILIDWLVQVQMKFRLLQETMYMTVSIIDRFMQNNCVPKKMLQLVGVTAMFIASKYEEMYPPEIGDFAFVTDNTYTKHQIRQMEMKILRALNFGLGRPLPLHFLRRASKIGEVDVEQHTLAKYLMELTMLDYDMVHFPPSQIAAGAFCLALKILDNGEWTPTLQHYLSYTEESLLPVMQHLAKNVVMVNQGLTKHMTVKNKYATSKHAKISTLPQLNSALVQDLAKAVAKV
Description: as §1

FES = target: T4, FES (Homo sapiens, UniProt P07332); assay: SelectScreen kinase selectivity assay; format: biochemical
T4 construct: purchased Thermo Fisher Scientific (SelectScreen service)
Description: as §1

ABL1 = target: T5, ABL1 (Homo sapiens, UniProt P00519); assay: SelectScreen kinase selectivity assay; format: biochemical
T5 construct: purchased Thermo Fisher Scientific (SelectScreen service)
Description: as §1

DDR2 = target: T6, DDR2 (Homo sapiens, UniProt Q16832); assay: SelectScreen kinase selectivity assay; format: biochemical
T6 construct: purchased Thermo Fisher Scientific (SelectScreen service)
Description: as §1

PLK1 = target: T7, PLK1 (Homo sapiens, UniProt P53350); assay: SelectScreen kinase selectivity assay; format: biochemical
T7 construct: purchased Thermo Fisher Scientific (SelectScreen service)
Description: as §1

INSRR = target: T8, INSRR (Homo sapiens, UniProt P14616); assay: SelectScreen kinase selectivity assay; format: biochemical
T8 construct: purchased Thermo Fisher Scientific (SelectScreen service)
T8 sequence (P14616 27-1297): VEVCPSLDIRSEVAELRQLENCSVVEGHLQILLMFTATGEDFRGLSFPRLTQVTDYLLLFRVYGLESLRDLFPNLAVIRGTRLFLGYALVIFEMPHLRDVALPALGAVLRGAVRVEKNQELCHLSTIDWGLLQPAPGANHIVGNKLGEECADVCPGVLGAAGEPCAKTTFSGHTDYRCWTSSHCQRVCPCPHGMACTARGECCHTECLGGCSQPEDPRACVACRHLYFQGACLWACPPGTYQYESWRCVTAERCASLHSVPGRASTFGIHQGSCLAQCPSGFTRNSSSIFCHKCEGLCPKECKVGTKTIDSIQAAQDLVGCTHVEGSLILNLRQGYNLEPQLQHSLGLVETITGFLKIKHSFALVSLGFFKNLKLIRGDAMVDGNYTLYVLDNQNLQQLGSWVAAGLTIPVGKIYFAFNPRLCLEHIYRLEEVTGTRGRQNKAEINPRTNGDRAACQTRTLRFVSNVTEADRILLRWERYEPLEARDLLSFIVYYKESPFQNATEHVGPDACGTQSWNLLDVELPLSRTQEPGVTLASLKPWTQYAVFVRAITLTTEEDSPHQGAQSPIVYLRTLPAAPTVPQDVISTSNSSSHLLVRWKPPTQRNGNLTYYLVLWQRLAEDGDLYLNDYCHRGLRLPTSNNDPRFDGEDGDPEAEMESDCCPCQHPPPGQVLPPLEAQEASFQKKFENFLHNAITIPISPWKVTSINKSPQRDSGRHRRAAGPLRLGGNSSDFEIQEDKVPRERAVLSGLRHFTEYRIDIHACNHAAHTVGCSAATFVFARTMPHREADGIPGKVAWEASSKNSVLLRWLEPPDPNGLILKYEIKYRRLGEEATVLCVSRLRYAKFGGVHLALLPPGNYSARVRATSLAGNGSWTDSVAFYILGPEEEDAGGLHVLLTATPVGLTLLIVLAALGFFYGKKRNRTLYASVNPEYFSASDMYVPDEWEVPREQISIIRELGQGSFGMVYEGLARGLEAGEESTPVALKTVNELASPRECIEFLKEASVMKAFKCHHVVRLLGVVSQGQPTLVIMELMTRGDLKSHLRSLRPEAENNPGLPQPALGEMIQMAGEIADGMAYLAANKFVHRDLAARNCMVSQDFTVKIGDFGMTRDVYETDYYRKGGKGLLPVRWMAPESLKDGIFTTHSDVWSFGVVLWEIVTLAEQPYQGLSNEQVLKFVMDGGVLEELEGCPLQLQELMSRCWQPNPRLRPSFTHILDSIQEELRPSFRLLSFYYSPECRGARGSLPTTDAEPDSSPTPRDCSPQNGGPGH
Description: as §1

DDR1 = target: T9, DDR1 (Homo sapiens, UniProt Q08345); assay: SelectScreen kinase selectivity assay; format: biochemical
T9 construct: purchased Thermo Fisher Scientific (SelectScreen service)
Description: as §1

JAK2 = target: T10, JAK2 (Homo sapiens, UniProt O60674); assay: SelectScreen kinase selectivity assay; format: biochemical
T10 construct: purchased Thermo Fisher Scientific (SelectScreen service)
Description: as §1

PDGFRB = target: T11, PDGFRB (Homo sapiens, UniProt P09619); assay: SelectScreen kinase selectivity assay; format: biochemical
T11 construct: purchased Thermo Fisher Scientific (SelectScreen service)
Description: as §1

EPHA6 = target: T12, EPHA6 (Homo sapiens, UniProt Q9UF33); assay: SelectScreen kinase selectivity assay; format: biochemical
T12 construct: purchased Thermo Fisher Scientific (SelectScreen service)
Description: as §1

IGF1R = target: T13, IGF1R (Homo sapiens, UniProt P08069); assay: SelectScreen kinase selectivity assay; format: biochemical
T13 construct: purchased Thermo Fisher Scientific (SelectScreen service)
Description: as §1

CSF1R = target: T14, CSF1R (Homo sapiens, UniProt P07333); assay: SelectScreen kinase selectivity assay; format: biochemical
T14 construct: purchased Thermo Fisher Scientific (SelectScreen service)
Description: as §1

KDR = target: T15, KDR (Homo sapiens, UniProt P35968); assay: SelectScreen kinase selectivity assay; format: biochemical
T15 construct: purchased Thermo Fisher Scientific (SelectScreen service)
Description: as §1

EPHA8 = target: T16, EPHA8 (Homo sapiens, UniProt P29322); assay: SelectScreen kinase selectivity assay; format: biochemical
T16 construct: purchased Thermo Fisher Scientific (SelectScreen service)
Description: as §1

TYRO3 = target: T17, TYRO3 (Homo sapiens, UniProt Q06418); assay: SelectScreen kinase selectivity assay; format: biochemical
T17 construct: purchased Thermo Fisher Scientific (SelectScreen service)
Description: as §1

NTRK2 = target: T18, NTRK2 (Homo sapiens, UniProt Q16620); assay: SelectScreen kinase selectivity assay; format: biochemical
T18 construct: purchased Thermo Fisher Scientific (SelectScreen service)
Description: as §1

PDGFRA = target: T19, PDGFRA (Homo sapiens, UniProt P16234); assay: SelectScreen kinase selectivity assay; format: biochemical
T19 construct: purchased Thermo Fisher Scientific (SelectScreen service)
Description: as §1

KIT = target: T20, KIT (Homo sapiens, UniProt P10721); assay: SelectScreen kinase selectivity assay; format: biochemical
T20 construct: purchased Thermo Fisher Scientific (SelectScreen service)
Description: as §1

ITK = target: T21, ITK (Homo sapiens, UniProt Q08881); assay: SelectScreen kinase selectivity assay; format: biochemical
T21 construct: purchased Thermo Fisher Scientific (SelectScreen service)
T21 sequence (Q08881 whole entry): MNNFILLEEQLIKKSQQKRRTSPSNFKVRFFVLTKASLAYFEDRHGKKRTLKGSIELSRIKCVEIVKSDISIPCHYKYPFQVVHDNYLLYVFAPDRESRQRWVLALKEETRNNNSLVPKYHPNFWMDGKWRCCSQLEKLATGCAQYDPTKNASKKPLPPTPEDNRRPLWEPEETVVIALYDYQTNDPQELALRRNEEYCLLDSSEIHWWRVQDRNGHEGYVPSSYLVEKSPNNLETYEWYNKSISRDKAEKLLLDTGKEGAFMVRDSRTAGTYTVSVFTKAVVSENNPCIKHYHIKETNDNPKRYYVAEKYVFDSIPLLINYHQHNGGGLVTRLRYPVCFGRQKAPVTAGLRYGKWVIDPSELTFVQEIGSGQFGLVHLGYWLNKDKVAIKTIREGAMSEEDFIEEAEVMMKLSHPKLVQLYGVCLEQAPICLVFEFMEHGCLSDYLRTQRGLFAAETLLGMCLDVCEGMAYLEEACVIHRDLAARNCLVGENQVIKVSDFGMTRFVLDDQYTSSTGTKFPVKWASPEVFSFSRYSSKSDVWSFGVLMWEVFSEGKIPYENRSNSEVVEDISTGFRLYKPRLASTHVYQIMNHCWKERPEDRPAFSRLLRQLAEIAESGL
Description: as §1

PLK3 = target: T22, PLK3 (Homo sapiens, UniProt Q9H4B4); assay: SelectScreen kinase selectivity assay; format: biochemical
T22 construct: purchased Thermo Fisher Scientific (SelectScreen service)
Description: as §1

INSR = target: T23, INSR (Homo sapiens, UniProt P06213); assay: SelectScreen kinase selectivity assay; format: biochemical
T23 construct: purchased Thermo Fisher Scientific (SelectScreen service)
T23 sequence (P06213 28-1382): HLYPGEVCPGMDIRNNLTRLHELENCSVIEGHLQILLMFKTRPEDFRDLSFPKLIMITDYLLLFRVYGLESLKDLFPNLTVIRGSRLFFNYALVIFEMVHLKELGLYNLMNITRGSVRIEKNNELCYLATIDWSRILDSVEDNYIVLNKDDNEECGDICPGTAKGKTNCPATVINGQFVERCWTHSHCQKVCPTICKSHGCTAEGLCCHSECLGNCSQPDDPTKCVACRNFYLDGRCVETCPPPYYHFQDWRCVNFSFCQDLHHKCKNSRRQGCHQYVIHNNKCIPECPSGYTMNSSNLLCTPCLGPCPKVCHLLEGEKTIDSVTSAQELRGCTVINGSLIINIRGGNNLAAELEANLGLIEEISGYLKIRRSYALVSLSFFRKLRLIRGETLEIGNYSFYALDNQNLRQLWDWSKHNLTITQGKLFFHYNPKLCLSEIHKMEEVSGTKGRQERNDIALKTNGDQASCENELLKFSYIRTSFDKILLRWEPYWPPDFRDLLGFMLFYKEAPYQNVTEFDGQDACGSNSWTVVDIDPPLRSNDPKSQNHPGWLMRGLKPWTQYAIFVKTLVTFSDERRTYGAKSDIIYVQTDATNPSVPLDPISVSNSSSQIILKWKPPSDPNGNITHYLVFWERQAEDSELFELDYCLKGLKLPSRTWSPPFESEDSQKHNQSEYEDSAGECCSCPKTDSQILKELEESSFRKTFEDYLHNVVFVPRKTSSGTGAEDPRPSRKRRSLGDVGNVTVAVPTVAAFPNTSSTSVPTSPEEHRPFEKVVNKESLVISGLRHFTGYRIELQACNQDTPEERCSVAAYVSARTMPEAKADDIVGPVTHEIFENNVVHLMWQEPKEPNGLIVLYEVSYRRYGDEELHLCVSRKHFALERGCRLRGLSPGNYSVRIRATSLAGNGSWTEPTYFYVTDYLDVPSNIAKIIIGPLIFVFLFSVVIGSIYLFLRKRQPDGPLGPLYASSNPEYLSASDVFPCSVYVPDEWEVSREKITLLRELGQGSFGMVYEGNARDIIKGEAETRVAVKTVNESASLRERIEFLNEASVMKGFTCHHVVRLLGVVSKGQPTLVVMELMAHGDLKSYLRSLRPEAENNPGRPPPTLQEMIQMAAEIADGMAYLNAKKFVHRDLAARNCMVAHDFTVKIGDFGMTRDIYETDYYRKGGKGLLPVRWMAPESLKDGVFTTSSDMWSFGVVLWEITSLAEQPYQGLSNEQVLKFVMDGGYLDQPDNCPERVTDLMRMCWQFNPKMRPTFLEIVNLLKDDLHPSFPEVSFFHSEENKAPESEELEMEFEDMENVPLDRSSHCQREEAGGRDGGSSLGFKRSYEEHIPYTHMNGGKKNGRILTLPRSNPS
Description: as §1

JAK3 = target: T24, JAK3 (Homo sapiens, UniProt P52333); assay: SelectScreen kinase selectivity assay; format: biochemical
T24 construct: purchased Thermo Fisher Scientific (SelectScreen service)
Description: as §1

LTK = target: T25, LTK (Homo sapiens, UniProt P29376); assay: SelectScreen kinase selectivity assay; format: biochemical
T25 construct: purchased Thermo Fisher Scientific (SelectScreen service)
Description: as §1

ERBB2 = target: T26, ERBB2 (Homo sapiens, UniProt P04626); assay: SelectScreen kinase selectivity assay; format: biochemical
T26 construct: purchased Thermo Fisher Scientific (SelectScreen service)
Description: as §1

EPHA2 = target: T27, EPHA2 (Homo sapiens, UniProt P29317); assay: SelectScreen kinase selectivity assay; format: biochemical
T27 construct: purchased Thermo Fisher Scientific (SelectScreen service)
Description: as §1

Hep3B = assay: MTT assay; format: cell-based; conditions: Homo sapiens, 48 h, read-out: IC50 (μM) ± SD Hep3B
Description: Cells at a density of 4×10^3 cells/well were inoculated into 96-well plates for overnight culture at 37°C. […] Then, 100 μL of a 0.5 mg/mL MTT solution was pipetted into each well, and the incubation was prolonged for 4 h, resulting in the formation of a purple precipitate. Afterward, 200 μL of DMSO was added to each well, and the plate was vortexed for 10 min. The absorbance at 570 nm was determined with a Synergy 4 microplate reader (BioTek, United States). Each experiment was performed three times under the same conditions.

In vivo pharmacokinetics = conditions: BALB/c, mouse, plasma, mice, 5 mg/kg
Description: In the pharmacokinetic (PK) assessment of PKHD-5, BALB/c mice were utilized as the experimental model. PKHD-5 was administered either intraperitoneally or orally at a dosage of 5 mg/kg. Serial blood samples (0.25 mL) were collected at 0.25, 0.5, 1, 2, 4, 8, 16, and 24 h post-treatment. Each plasma sample (50 μL) underwent protein precipitation with a 1:1 mixture of methanol and acetonitrile (200 μL) and an internal standard. After vortexing for 5 min, the samples were centrifuged at 12,000 rpm for 5 min, yielding a supernatant (60 μL) for LC-MS/MS analysis. The data obtained were analyzed using Phoenix software to determine the PK profile of PKHD-5 in the mouse model.

HepG2 cells = assay: RT-PCR analysis; format: cell-based, human
Description: Total RNA was extracted from cells using Trizol reagent (Invitrogen, Carlsbad, CA) and reverse transcribed into cDNA with the PrimeScript RT reagent kit (Takara Bio, Otsu, Japan). RT-PCR was performed on the Mx3000P system (Agilent Technologies, Santa Clara, CA) with TB Green Premix Ex Taq II (Takara Bio). Relative gene expression was determined by the 2^−ΔΔCt method.

T1 sequence (O15146 24-869): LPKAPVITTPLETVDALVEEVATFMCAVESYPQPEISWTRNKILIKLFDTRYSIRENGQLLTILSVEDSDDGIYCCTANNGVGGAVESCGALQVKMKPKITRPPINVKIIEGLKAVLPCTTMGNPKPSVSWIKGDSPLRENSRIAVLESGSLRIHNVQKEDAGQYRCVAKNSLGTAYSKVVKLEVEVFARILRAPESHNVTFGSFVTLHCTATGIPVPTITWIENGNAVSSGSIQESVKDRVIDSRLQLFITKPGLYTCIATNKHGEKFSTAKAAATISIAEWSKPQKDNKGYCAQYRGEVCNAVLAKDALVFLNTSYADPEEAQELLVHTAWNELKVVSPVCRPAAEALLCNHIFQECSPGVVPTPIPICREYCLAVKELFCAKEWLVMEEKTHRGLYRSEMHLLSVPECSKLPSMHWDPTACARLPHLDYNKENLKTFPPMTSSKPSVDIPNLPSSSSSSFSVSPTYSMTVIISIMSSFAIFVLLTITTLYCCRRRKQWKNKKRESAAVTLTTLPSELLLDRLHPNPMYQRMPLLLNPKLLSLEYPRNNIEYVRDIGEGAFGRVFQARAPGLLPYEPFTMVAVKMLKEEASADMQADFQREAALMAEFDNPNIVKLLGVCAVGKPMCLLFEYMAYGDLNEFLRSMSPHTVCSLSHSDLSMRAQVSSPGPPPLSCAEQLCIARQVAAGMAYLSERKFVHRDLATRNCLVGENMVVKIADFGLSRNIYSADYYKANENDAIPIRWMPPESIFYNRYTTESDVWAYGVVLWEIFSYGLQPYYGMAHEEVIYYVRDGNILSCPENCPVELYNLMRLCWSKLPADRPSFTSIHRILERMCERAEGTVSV

Cc1ccc(O)c(C)c1-n1c(N)c(C(N)=O)c2cc(CCCCCC(=O)NO)c(C)nc21 [PKHD-5]
IC50 (MUSK): > 50 µM | IC50 (EPHA7): > 50 µM | IC50 (CDK1): > 50 µM | IC50 (FES): > 50 µM | IC50 (ABL1): > 50 µM | IC50 (DDR2): > 50 µM | IC50 (PLK1): > 50 µM | IC50 (INSRR): > 50 µM | IC50 (DDR1): > 50 µM | IC50 (JAK2): > 50 µM | IC50 (PDGFRB): > 50 µM | IC50 (EPHA6): > 50 µM | IC50 (IGF1R): > 50 µM | IC50 (CSF1R): > 50 µM | IC50 (KDR): > 50 µM | IC50 (EPHA8): > 50 µM | IC50 (TYRO3): > 50 µM | IC50 (NTRK2): > 50 µM | IC50 (PDGFRA): > 50 µM | IC50 (KIT): > 50 µM | IC50 (ITK): > 50 µM | IC50 (PLK3): > 50 µM | IC50 (INSR): > 50 µM | IC50 (JAK3): > 50 µM | IC50 (LTK): > 50 µM | IC50 (ERBB2): > 50 µM | IC50 (EPHA2): > 50 µM | IC50 (Hep3B): 0.38 ± 0.05 µM | AUC (In vivo pharmacokinetics; IP): 15 µM·h | Cmax (In vivo pharmacokinetics; IP): 3.26 µM | bioavailability (In vivo pharmacokinetics; IP): 82% | half-life (In vivo pharmacokinetics; IP): 4.75 h | AUC (In vivo pharmacokinetics; PO): 12.2 µM·h | Cmax (In vivo pharmacokinetics; PO): 2.92 µM | bioavailability (In vivo pharmacokinetics; PO): 66% | half-life (In vivo pharmacokinetics; PO): 3.93 h | expression of histone H3 acetylation (HepG2 cells): upregulated | expression of p21 (HepG2 cells): upregulated
